In US20120214748A1, “NOVEL PEPTIDES, PROCESS FOR PREPARATION THEREOF, AND USE THEREOF” (priority 2009, published 2012):
Where two headings read alike, the source gives them in different places. Bridge positions count the residues as written; N and C are the ends. Peptide text beside a SMILES is read from it.

Legend:
Trypsin = biological target: T1, Trypsin (Bos taurus, UniProt P00760); test: Trypsin inhibition on Z-L-Lys-SBzl substrate
T1 sequence (P00760 24-246): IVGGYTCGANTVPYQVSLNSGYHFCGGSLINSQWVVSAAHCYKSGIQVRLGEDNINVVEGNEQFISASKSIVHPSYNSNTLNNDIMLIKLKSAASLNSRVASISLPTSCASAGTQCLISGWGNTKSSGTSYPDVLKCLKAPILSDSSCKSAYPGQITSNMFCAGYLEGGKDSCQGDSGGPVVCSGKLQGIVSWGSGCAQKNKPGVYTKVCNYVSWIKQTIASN

MASP-1 CCP1-CCP2-SP = biological target: T2, MASP-1 CCP1-CCP2-SP (Homo sapiens, UniProt P48740); test: Ki determination with synthetic substrate Z-L-Lys-SBzl on MASP-1; assay type: biochemical
T2 construct: Human MASP-targets consist of a serine-protease (SP) domain and two complement control protein domains (CCP-1,-2); made in house
T2 sequence (P48740 449-699 limits assumed): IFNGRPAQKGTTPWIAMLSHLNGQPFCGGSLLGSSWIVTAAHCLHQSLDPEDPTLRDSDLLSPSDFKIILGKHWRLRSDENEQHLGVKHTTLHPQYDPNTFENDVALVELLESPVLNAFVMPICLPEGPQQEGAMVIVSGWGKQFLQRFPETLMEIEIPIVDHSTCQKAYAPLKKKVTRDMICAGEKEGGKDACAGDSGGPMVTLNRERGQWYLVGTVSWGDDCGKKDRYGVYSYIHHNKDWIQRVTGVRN
T2 sequence (P48740 298-448 partner limits assumed): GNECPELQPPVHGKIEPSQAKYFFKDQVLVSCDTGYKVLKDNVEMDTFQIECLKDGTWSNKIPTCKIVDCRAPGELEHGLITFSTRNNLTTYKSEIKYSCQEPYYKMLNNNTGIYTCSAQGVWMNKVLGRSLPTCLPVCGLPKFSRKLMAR

MASP-2 CCP1-CCP2-SP = biological target: T3, MASP-2 CCP1-CCP2-SP (Homo sapiens, UniProt O00187); test: Ki determination with synthetic substrate Z-L-Lys-SBzl on MASP-2; assay type: biochemical; conditions: NG = inhibition could not be measured even at the highest inhibitor concentration used
T3 construct: Human MASP-targets consist of a serine-protease (SP) domain and two complement control protein domains (CCP-1,-2); made in house

Thrombin = Thrombin (Homo sapiens, UniProt P00734); test: Thrombin inhibition with Z-Gly-Pro-Arg-pNa substrate; assay type: biochemical
[1] = tested on: blood coagulation (thrombin operation); test: Thrombin time (TT) in blood plasma; conditions: peptide 200 μM, FIG. 6.a
Experimental: (§1) We performed blood coagulation measurements using blood plasma taken from healthy individuals. From the blood obtained through venipuncture and treated with sodium citrate (3.8% wt/vol) the plasma was isolated by centrifugation (2000 g, 15 minutes, Jouan CR412 centrifuge).
(§2) Prothrombin time (PT) testing the extrinsic pathway of blood coagulation was measured on Sysmex® CA-500 (Sysmex, Japan) automatic system using Innovin® Reagent (Dale Behring, Marburg, Germany). Activated partial thromboplastin time (APTT) testing the intrinsic pathway of blood coagulation and thrombin time (TT) directly testing thrombin operation was measured on a Coag-A-Mate® MAX (BioMerieux, France) analyser using TriniClot™ reagent (Trinity Biotech, Wichlow, Ireland) and Reanal™ reagent (Reanal Finechemical, Hungary).
(§3) To examine the effects of peptides on blood coagulation we measured dose dependency, the results are shown on the graphs in FIG. 6. […] On the ordinates time is determined in seconds, while on the abscissas the logarithm of the inhibitor concentration is shown in μM.
(§4) FIG. 6.a illustrates an experiment for measuring thrombin time, in the course of which plasma coagulation (fibrin formation) is initiated by adding thrombin to the plasma. […] The members of this protease cascade are inhibited with peptide used in increasing concentrations (abscissa), and the time needed for coagulation is measured (ordinate).

[2] = tested on: extrinsic pathway of blood coagulation; test: Prothrombin time (PT) in blood plasma; conditions: peptide 200 μM, FIG. 6.b
Experimental: as §1, §2, §3, §4

[3] = tested on: intrinsic pathway of blood coagulation; test: Activated partial thromboplastin time (APTT) in blood plasma; conditions: peptide 200 μM, FIG. 6.c
Experimental: as §1, §2, §3, §4

[4] = tested on: lectin pathway of the complement system; test: WIELISA complement assay, lectin pathway; assay type: biochemical; conditions: serum, FIG. 7
Experimental: (§5) For measuring we used the so-called WIELISA kit (Euro-Diagnostica AB, COMPL300) developed for the selective measuring of the complement pathways, on the basis of the instructions for use attached to the kit. […] At the same time, the product detected during measuring is not a pathway-selective component, but the last element of the joint section of the activation pathways, the C5-9 complex.
(§6) The serum was diluted according to the prescriptions with the buffer belonging to the given complement pathway, it was incubated for 20 minutes at room temperature, the dilution sequence prepared from peptides was added to it, it was incubated for 20 minutes at room temperature, then it was pipetted into the appropriate wells of a special ELISA plate. In the following, washing, incubation and antibody addition was performed according to the instructions for use. It was incubated for 20 minutes with the substrate, and then the data was read at 450 nm in a spectrophotometer. A parallel belonged to each measuring point, 100% activity was represented by the serum without an inhibitor. The measurements were performed at the same time and on the same plate, from one single melted serum sample.

[5] = tested on: classical pathway of the complement system; test: WIELISA complement assay, classical pathway; assay type: biochemical; conditions: serum, FIG. 7
Experimental: as §5, §6

[6] = tested on: alternative pathway of the complement system; test: WIELISA complement assay, alternative pathway; assay type: biochemical; conditions: serum, FIG. 7
Experimental: as §5, §6

MASP enzymes [7] = test: Preliminary experiments: inhibition of MASP enzymes by SGCI; assay type: biochemical
MASP enzymes [8] = test: Preliminary experiments: binding of SGCI to MASP enzymes

T3 sequence (O00187 445-686 limits assumed): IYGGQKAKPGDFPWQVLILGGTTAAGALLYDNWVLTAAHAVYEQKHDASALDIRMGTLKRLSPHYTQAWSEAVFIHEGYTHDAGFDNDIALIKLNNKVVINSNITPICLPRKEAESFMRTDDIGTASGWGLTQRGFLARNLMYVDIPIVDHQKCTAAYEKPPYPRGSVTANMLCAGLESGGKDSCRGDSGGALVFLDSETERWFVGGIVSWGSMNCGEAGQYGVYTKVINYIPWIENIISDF
T3 sequence (O00187 287-444 partner limits assumed): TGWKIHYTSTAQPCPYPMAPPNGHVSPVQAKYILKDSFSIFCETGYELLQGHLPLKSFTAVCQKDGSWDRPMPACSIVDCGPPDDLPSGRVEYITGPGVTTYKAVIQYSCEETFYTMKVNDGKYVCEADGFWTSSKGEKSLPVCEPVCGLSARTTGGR

## CC[C@H](C)[C@@H]1NC(=O)CNC(=O)[C@H](CC(=O)O)NC(=O)[C@@H]2CCCN2C(=O)[C@H]([C@@H](C)CC)NC(=O)[C@@H]2CSSC[C@H](NC1=O)C(=O)N[C@@H](CO)C(=O)N[C@@H](CCCNC(=N)N)C(=O)N[C@@H](CO)C(=O)N[C@@H](CC(C)C)C(=O)N1CCC[C@H]1C(=O)N1CCC[C@H]1C(=O)N[C@@H]([C@@H](C)CC)C(=O)N2 [M2-4G cyclic] (cyclo(CIPDGICSRSLPPI); disulfide 1-7)
Trypsin
  Ki: 350 nM

## CC[C@H](C)[C@@H]1NC(=O)[C@@H]2CCCN2C(=O)[C@@H]2CCCN2C(=O)[C@H](CC(C)C)NC(=O)[C@H](CO)NC(=O)[C@H](CCCNC(=N)N)NC(=O)[C@H](CO)NC(=O)[C@@H](NC(=O)[C@@H](NC(=O)CN)C(C)C)CSSC[C@@H](C(=O)N[C@@H](Cc2c[nH]c3ccccc23)C(=O)N2CCC[C@H]2C(=O)N[C@@H](CC(=O)O)C(=O)O)NC1=O [M1-3E-Y12W] (H-GVCSRSLPPICWPD-OH; disulfide 3-11; N-terminus and C-terminus assumed)
Trypsin
  Ki: 170 nM

## CC[C@H](C)[C@H](NC(=O)[C@@H]1CSSC[C@H](NC(=O)[C@H](Cc2c[nH]c3ccccc23)NC(=O)CN)C(=O)N[C@@H](CO)C(=O)N[C@@H](CCCNC(=N)N)C(=O)N[C@@H](CO)C(=O)N[C@@H](Cc2ccc(O)cc2)C(=O)N2CCC[C@H]2C(=O)N2CCC[C@H]2C(=O)N[C@@H](C(C)C)C(=O)N1)C(=O)N1CCC[C@H]1C(=O)N[C@@H](CC(=O)O)C(=O)O [M2-6E-Y2W] (H-GWCSRSYPPVCIPD-OH; disulfide 3-11; N-terminus and C-terminus assumed)
Trypsin
  Ki: 1700 nM

## CC[C@H](C)[C@H](NC(=O)[C@@H]1CSSC[C@H](NC(=O)[C@H](Cc2ccc(O)cc2)NC(=O)CN)C(=O)N[C@@H](CO)C(=O)N[C@@H](CCCNC(=N)N)C(=O)N[C@@H](CO)C(=O)N[C@@H](Cc2ccc(O)cc2)C(=O)N2CCC[C@H]2C(=O)N2CCC[C@H]2C(=O)N[C@@H](C(C)C)C(=O)N1)C(=O)N1CCC[C@H]1C(=O)N[C@@H](CC(=O)O)C(=O)O [M2-6E] (H-GYCSRSYPPVCIPD-OH; disulfide 3-11; N-terminus and C-terminus assumed)
MASP-1 CCP1-CCP2-SP
  activity on MASP-1: not active on MASP-1
MASP-2 CCP1-CCP2-SP
  Ki: 180 nM
Thrombin
  thrombin inhibition: very poor thrombin inhibitor
Thrombin; read-out: KI Thrombin
  Ki: 550000 nM
[1]
  thrombin time, effect on coagulation: remained near the normal range
[2]
  prothrombin time, effect on coagulation: remained near the normal range
[3]
  activated thromboplastin time, effect on coagulation: remained near the normal range
[4]
  inhibition of the lectin pathway (C5-9 complex): efficient and specific inhibitors of the lectin pathway
[5]
  inhibition of the classical pathway (C5-9 complex): neither “S” peptide nor the “NS” peptide inhibited
[6]
  inhibition of the alternative pathway (C5-9 complex): neither “S” peptide nor the “NS” peptide inhibited
Trypsin
  Ki: 1000 nM
Trypsin; compared with wild-type SFTI
  activity on trypsin, lower by: 4 orders of magnitude

## CC[C@H](C)[C@H](NC(=O)CN)C(=O)N[C@H]1CSSC[C@@H](C(=O)N[C@H](C(=O)N2CCC[C@H]2C(=O)N[C@@H](CC(=O)O)C(=O)O)[C@@H](C)CC)NC(=O)[C@H]([C@@H](C)CC)NC(=O)[C@@H]2CCCN2C(=O)[C@@H]2CCCN2C(=O)[C@H](CC(C)C)NC(=O)[C@H](CO)NC(=O)[C@H](CCCNC(=N)N)NC(=O)[C@H](CO)NC1=O [M2-4G] (H-GICSRSLPPICIPD-OH; disulfide 3-11; N-terminus and C-terminus assumed)
Thrombin
  thrombin inhibition: poor thrombin inhibitor
Thrombin; read-out: Ki value on thrombin
  Ki: 10000 nM
[1]
  thrombin time, effect on coagulation: reached the extreme measuring value
[2]
  prothrombin time, effect on coagulation: reached the extreme measuring value
[3]
  activated thromboplastin time, effect on coagulation: reached the extreme measuring value
[4]
  inhibition of the lectin pathway (C5-9 complex): efficient and specific inhibitors of the lectin pathway
[5]
  inhibition of the classical pathway (C5-9 complex): neither “S” peptide nor the “NS” peptide inhibited
[6]
  inhibition of the alternative pathway (C5-9 complex): neither “S” peptide nor the “NS” peptide inhibited
Trypsin
  Ki: 260 nM
  trypsin inhibition compared to wild-type SFTI-1: much weaker on trypsin than wild-type SFTI-1

## CC[C@H](C)[C@H](NC(=O)[C@@H]1CSSC[C@H](NC(=O)[C@H](Cc2ccc(O)cc2)NC(=O)CN)C(=O)N[C@@H](CO)C(=O)N[C@@H](CCCNC(=N)N)C(=O)N[C@@H](CO)C(=O)N[C@@H]([C@@H](C)CC)C(=O)N2CCC[C@H]2C(=O)N2CCC[C@H]2C(=O)N[C@@H](C(C)C)C(=O)N1)C(=O)N1CCC[C@H]1C(=O)N[C@@H](CC(=O)O)C(=O)O [M2-6E-Y7I] (H-GYCSRSIPPVCIPD-OH; disulfide 3-11; N-terminus and C-terminus assumed)
Trypsin
  Ki: 160 nM

## CC[C@H](C)[C@H](NC(=O)[C@@H]1CSSC[C@H](NC(=O)[C@H](CCSC)NC(=O)CN)C(=O)N[C@@H](CO)C(=O)N[C@@H](CCCNC(=N)N)C(=O)N[C@@H](CO)C(=O)N[C@@H](Cc2ccc(O)cc2)C(=O)N2CCC[C@H]2C(=O)N2CCC[C@H]2C(=O)N[C@@H](C(C)C)C(=O)N1)C(=O)N1CCC[C@H]1C(=O)N[C@@H](CC(=O)O)C(=O)O [M2-6E-Y2M] (H-GMCSRSYPPVCIPD-OH; disulfide 3-11; N-terminus and C-terminus assumed)
Trypsin
  Ki: 4000 nM

## SGCI: Schistocerca Gregaria Chymotrypsin Inhibitor, chymotrypsin inhibitor molecule fused to the SFTI library for monovalent phage display (EVTCEPGTTFKDKCNTCRCGSDGKSAACTLKACPQ)
MASP enzymes [7]
  inhibition of MASP enzymes: does not inhibit MASP enzymes
MASP enzymes [8]
  binding to MASP enzymes: does not even bind to these enzymes

## CC[C@H](C)[C@@H]1NC(=O)[C@@H]2CCCN2C(=O)[C@@H]2CCCN2C(=O)[C@H]([C@@H](C)CC)NC(=O)[C@H](CO)NC(=O)[C@H](CCCCN)NC(=O)[C@H]([C@@H](C)O)NC(=O)[C@@H](NC(=O)[C@H](CCCNC(=N)N)NC(=O)CN)CSSC[C@@H](C(=O)N[C@@H](Cc2ccccc2)C(=O)N2CCC[C@H]2C(=O)N[C@@H](CC(=O)O)C(=O)O)NC1=O [wild-type SFTI, reference compound]
Thrombin
  Ki: 140000 nM
